Results on two compounds are retold here after patent US5110927A (The United States of America as represented by the …, priority 1987, dated 1992).

Molecules are shown by their SMILES. Entries after “also recorded” stand apart in the source; their conditions may differ. Like-named read-outs stand apart in the source and are kept apart here.

The subject of assay [1] is alpha1-adrenoceptors and other receptors. The conditions noted are these: prior art; cited from earlier work.
The test system of assay [2] is α1-adrenoceptor (3H-prazosin binding sites). In words: irreversibility experiment: membranes preincubated with compound, washed, assayed for saturation of 3H-prazosin binding. Set-up: species or system rat. The conditions noted are these: for irreversible blockade / effect on 3H-prazosin binding sites (in words): membranes, preincubation and washing.
For assay [3], the system named is hypertensive patients; normotensive and hypertensive animals. The settings on record: human, in vivo; cited from earlier work.
In assay [4] the test system is phenylephrine, alpha1-adrenergic pressor response. In words: diastolic blood pressure response to phenylephrine in anesthetized rats. It counts as in vivo, rat. The settings on record: i.v., prazosin 0.11 mg/kg or compound 47 0.09 mg/kg, 15 min. How it is done:
(§1) Male rats were anesthetized, cannulated, and treated with hexamethonium bromide to block ganglionic effect, and their basal response in blood pressure to pressor compounds was measured. […] After fifteen minutes, the response in blood pressure to pressor compounds was re-evaluated.

The test system of assay [5] is BHT 933, alpha2-adrenergic pressor response. In words: diastolic blood pressure response to BHT 933 in anesthetized rats. The conditions noted are these: i.v., prazosin 0.11 mg/kg or compound 47 0.09 mg/kg, 15 min. It counts as in vivo, rat. As to the method: as §1
Assay [6] has as its target α1-adrenoceptor (3H-prazosin binding sites). In words: displacement of 3H-prazosin from rat cerebral cortical (brain) membranes. The conditions noted are these: for -logIC50: 3H-prazosin displacement, rat cerebral cortical membranes. As to the method:
IC50 values and apparent Ki values were determined as in Table 1.
(§2) Rat brain cortices were homogenized in approximately 30 volumes/wet weight of 50 mM Tris buffer, pH 7.4, containing 10 mM MgCl2 by use of a Polytron (setting 6 for 10 seconds). It should be noted that this buffer was used throughout the experimental procedures. The homogenate was centrifuged at 48,000×g for 10 minutes in a Sorvall RC-5B centrifuge. The resulting pellet was resuspended in buffer by use of a Polytron and recentrifuged. This process was repeated and the pellet was resuspended in approximately 200 volumes for affinity studies or 20 volumes for irreversibility experiments.
Specific binding was defined as the difference between total binding (measured in the absence of any ligand) and non-specific binding (measured in the presence of 10 microM phentolamine). Duplicate tubes were used for each condition. Reaction tubes were incubated for 30 minutes at 30° C., then diluted to 5 ml with ice cold buffer, and filtered under reduced pressure through Whatman GF/C glass fiber filters. The reaction tubes and filters were washed three additional times with buffer.
A general note: Loss of bound radioactivity is the signal in a displacement assay; it reports binding, not function.

Assay [7] has as its system cholinergic (muscarinic) activated efflux of calcium ions, rat parotid cells. In words: calcium efflux activated by cholinergic (muscarinic) system in dispersed parotid cells. It counts as cell-based.
Assay [8] concerns α1-adrenoceptor (3H-prazosin binding sites). In words: intact animal study: intraperitoneal injection, membranes prepared 16 hours later and assayed for saturation of 3H-prazosin binding. It counts as in vivo, rat. How it is done:
Sixteen hours later, the animals were sacrificed, membranes were prepared from various tissues, and assayed for saturation of ^3 -prazosin binding.
To test its efficacy in vivo. compound No. 47 was injected intraperitoneally at a dose of 10 mg/kg into rats. In membranes prepared from brains and hearts of animals 16 hours after injection of compound 47, a 32-44% decrease in Bmax was noted, compared to animals injected with vehicle only. […]

In assay [9] the test system is catecholamine-activated efflux of calcium ions, rat parotid cells. Put plainly: calcium efflux activated by catecholamines in dispersed parotid cells. It counts as cell-based.
The target in assay [10] is T1, α1-adrenoceptor (3H-prazosin binding sites) (Rattus norvegicus, UniProt P15823).
T1 construct: Rat brain cortices were homogenized; from tissue; host or cells: rat brain cortex membranes; for some results heart ventricle, kidney cortex and spleen membranes
T1 sequence (P15823 1-515): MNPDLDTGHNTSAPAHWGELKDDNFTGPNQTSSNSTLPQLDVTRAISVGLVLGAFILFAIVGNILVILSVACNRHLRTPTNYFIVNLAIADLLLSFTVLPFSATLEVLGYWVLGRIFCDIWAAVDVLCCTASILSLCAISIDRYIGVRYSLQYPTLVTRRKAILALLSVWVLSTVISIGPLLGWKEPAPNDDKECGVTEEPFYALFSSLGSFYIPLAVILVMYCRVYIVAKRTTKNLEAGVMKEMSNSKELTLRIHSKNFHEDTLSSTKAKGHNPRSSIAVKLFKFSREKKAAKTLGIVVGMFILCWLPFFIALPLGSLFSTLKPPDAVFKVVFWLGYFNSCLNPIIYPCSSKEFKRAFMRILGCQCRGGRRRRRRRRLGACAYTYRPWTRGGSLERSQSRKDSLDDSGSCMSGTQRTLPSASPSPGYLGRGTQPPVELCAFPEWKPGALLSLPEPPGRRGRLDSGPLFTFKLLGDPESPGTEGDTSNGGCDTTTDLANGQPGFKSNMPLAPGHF
Put plainly: irreversibility experiment: membranes preincubated with compound, washed, assayed for saturation of 3H-prazosin binding. The conditions noted are these: spleen membranes, FIG. 3; statistically insignificant.

In assay [11] the test system is alpha2-adrenoceptors (3H-yohimbine binding sites). In words: irreversibility experiment: preincubation and washing of brain membranes, then 3H-yohimbine binding. Set-up: species or system rat. The conditions noted are these: preincubated and washed. As to the method:
(§3) FIG. 5 - In vitro blockage of adrenergic binding sites in rat brain membranes by compound No. b 47 Membranes were preincubated without 0---0, or with 0---0 1×10^-7 M of compound No. 47 and processed as described in the Methods. Membranes were assayed for ^3 -prazosin binding and either ^3 -DHA or ^3 -yohimbine binding. The data are the averages of two separate experiments.
(§4) Aliquots of a suspension of membranes (5 ml), prepared as described above, were incubated with either the addition of only buffer (control) or a solution of the tested compound at various concentrations ranging from 1×10^-10 to 1×10^-5 for about 60 minutes at about 30° C. The suspensions were then diluted to approximately 40 mL with buffer, and incubated a further 10 minutes on ice. The membranes were then washed by a series of four centrifugations and resuspensions before they were finally resuspended in approximately 50 mL buffer for assay of saturation of ^3 -prazosin binding.

For assay [12], the system named is beta-adrenoceptors (3H-DHA binding sites). In words: irreversibility experiment: preincubation and washing of brain membranes, then 3H-DHA binding. The arrangement: species or system rat. The conditions noted are these: preincubated and washed. As to the method:
as §3, §4

Assay [13] relates to norepinephrine-induced contraction of aorta rings. Put plainly: contraction of rabbit aorta rings caused by norepinephrine. The settings on record: 10^-6 M, thirty minutes exposure. How it is done: Rings from aortas of rabbits were prepared using standard procedures, the rings were characterized, and the effects of compound 47 on contraction caused by norepinephrine were characterized.

Assay [14] addresses T2, beta-adrenoceptors (3H-DHA binding sites) (Rattus norvegicus, UniProt P18090).
T2 construct: Membranes from rat brain cortex were prepared; from tissue; host or cells: rat brain cortex membranes
In words: displacement of 3H-DHA from rat brain membranes. How it is done:
(§5) FIG. 1 - Affinity of compound No. 47 at adrenergic binding sites on brain membranes. Membranes from rat brain cortex were prepared and the displacement of either ^3 H-prazosin 0---0, ^3 H-yohimbine Δ---Δ or ^3 H-DHA --- by compound No. 47 was measured. IC50 values and apparent Ki values were determined as in Table 1. The data in the figure are from a representative experiment which was repeated. […] The results are the averages of two separate experiments.
as §2

Assay [15] has as its target alpha2-adrenoreceptors (3H-yohimbine binding sites). In words: displacement of 3H-yohimbine from rat brain membranes. How it is done:
as §5, §2

T2 sequence (P18090 whole entry): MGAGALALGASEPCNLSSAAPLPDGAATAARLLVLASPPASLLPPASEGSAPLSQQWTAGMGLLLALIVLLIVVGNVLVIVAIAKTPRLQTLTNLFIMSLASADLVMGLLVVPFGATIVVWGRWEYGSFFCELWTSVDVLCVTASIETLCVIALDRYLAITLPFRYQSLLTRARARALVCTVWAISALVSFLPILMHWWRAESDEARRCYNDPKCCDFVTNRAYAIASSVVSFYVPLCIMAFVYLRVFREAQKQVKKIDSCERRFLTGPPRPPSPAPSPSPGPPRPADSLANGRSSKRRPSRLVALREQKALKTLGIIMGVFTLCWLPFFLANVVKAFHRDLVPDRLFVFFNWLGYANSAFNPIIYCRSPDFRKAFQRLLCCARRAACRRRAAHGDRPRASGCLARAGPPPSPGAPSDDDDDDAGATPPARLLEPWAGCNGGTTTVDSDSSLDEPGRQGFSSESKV

In the case of `COc1cc2nc(N3CCN(C(=O)c4ccco4)CC3)nc(N)c2cc1OC` [Compound 1, 2-(4-(2-furoyl)-piperazine-1-yl)-4-amino-6,7-dimethoxy-quinazoline, reference compound], the “receptor specificity (in words)” value in assay [1] is on record as “preferential affinity for postysynaptic alpha1 -adrenoreceptors”. Moreover, the “irreversible blockade / effect on 3H-prazosin binding sites (in words)” value is recorded as “prevented the decrease in binding sites caused by compound 47 alone; also recorded: had no effect on ^3 -prazosin binding” in assay [2] (listed as Prazosin) and “Washing the prazosin from the membranes restored the number of alpha1 -adrenoceptors” in [2] (listed as prazosin). The “lowering of blood pressure” value in assay [3] is “lower blood pressure in hypertensive patients and in normotensive and hypertensive animals”. The “effect on blood pressure response to phenylephrine” value in assay [4] is “a higher concentration of pressor compounds was required to obtain increases in blood pressure”. For the same compound, the “effect on blood pressure response to BHT 933” value in assay [5] is “a higher concentration of pressor compounds was required to obtain increases in blood pressure”. Moreover, the “-logIC50” value in [6] is 9.79.
With `COc1cc2nc(N3CCN(C(=O)C4=CC5C=CC4CC5)CC3)nc(N)c2cc1OC` (stereo not drawn) [Compound 47, 4-amino-2(4-bicyclo[2.2.2]octa-2,5-diene-2-carboxypiperazin-1-yl)-6,7-dimethoxyquinazoline], the “effect on muscarinic-activated calcium efflux” value in [7] is on record as “did not interfere in the efflux of calcium ions”. Also, the “% Reduction in Bmax, brain” value in assay [8] (10 mg/kg i.p., brain) turned out to be 36%. Besides, the Kd in [8] (10 mg/kg i.p., brain, control 0.317 ± 0.071, read-out: Kd, experimental, brain) stood at 0.292 ± 0.045 nM; in [8] (10 mg/kg i.p., heart, control 0.150 ± 0.019, read-out: Kd, experimental, heart), 0.255 ± 0.072 nM. In addition, in assay [8] (10 mg/kg i.p., heart), the “% Reduction in Bmax, heart” value was found to be 43%. In [8] (10 mg/kg i.p., kidney), the “% Reduction in Bmax, kidney” value came out at 21%. Further, the “decrease in Bmax, brains and hearts” value in assay [8] (10 mg/kg i.p., vs vehicle) was 32-44%. In addition, in assay [8] (i.p.), the “Kd of remaining receptors after i.p. injection (in words)” value is recorded as “a significant increase in the Kd of the remaining receptors was seen”. In [9], the “inhibition of catecholamine-activated calcium efflux” value was “potently inhibited the efflux of calcium ions”. Further, the “preincubation time to maximum blockade” value in [2] (FIG. 6, 1×10^-8 M, preincubation 15 min to 3 hr) is reported as “about 45 minutes”. The “Kd (KD) of remaining 3H-prazosin binding sites (in words)” value in assay [2] (after preincubation and washing) was “without a change in the affinity (KD) of the remaining sites; also recorded: Higher concentrations in the preincubation mixture increased the Kd of the remaining sites; also recorded: only decreased the concentration of ligand by 10- and 100-fold, respectively, at which the large Kd effects were noted; also recorded: the Kd of the remaining receptors increased when lower concentrations of added ligand were used in the diluted preincubation mixtures”. For the same compound, the “blockage of 3H-prazosin binding” value in assay [2] (brain membranes, 1 micromole of compound 47 in preincubation) is recorded as “approximately 50%”. The “maximum blockade of 3H-prazosin binding sites” value in assay [2] (brain membranes, altered protocols) was “no more than 50%”. Moreover, the “reduction of 3H-prazosin binding” value in [2] (brain membranes, preincubated with 10 nM, washed) is recorded as 50%. In assay [2] (brain membranes, two preincubations with 10 nM, FIG. 7), the “maximum blockade after double preincubation” value is not above 50%. Besides, in assay [2] (heart membranes, preincubated, FIG. 3), the “blockade of binding sites, heart membranes” value is on record as 40-50%. Further, in assay [2] (kidney membranes, preincubated, FIG. 3), the “blockade of binding sites, kidney membranes” value is given as 40-50%. The “irreversible blockade / effect on 3H-prazosin binding sites (in words)” value was “irreversible; also recorded: decreased the number of alpha1 -adrenoceptors permanently” in assay [2] and “Only approximately one half of the alpha1 -adrenoceptors could be eliminated in a clean manner” in [2] (listed as alkylated prazosin). Also, in assay [2] (preincubation time, ligand/receptor ratio, buffer, (-)epinephrine, double preincubation), the “blockade of 3H-prazosin binding sites under altered protocols (in words)” value is given as “remained at this level even after three hours of preincubation; also recorded: No difference in blockade; also recorded: Increasing the preincubation time up to three hours did not increase the amount of blockade; also recorded: did not change the outcome of the results; also recorded: did not affect the amount of blockade; also recorded: did not lead to further blockade”. Besides, the “decrease in binding sites, spleen membranes” value in assay [10] came to 18%. Moreover, the “effect of preincubation on 3H-yohimbine binding (alpha2)” value in assay [11] is on record as “did not irreversibly block ^3 -yohimbine binding sites; also recorded: unaffected”; in assay [11] (listed as alkylated prazosin), “did not introduce permanent change”. The “effect of preincubation on 3H-DHA binding (beta)” value is given as “unaffected” in [12] and “did not introduce permanent change” in assay [12] (listed as alkylated prazosin). In addition, the “effect on blood pressure response to phenylephrine” value in assay [4] is recorded as “counteracted only to phenylephrine”. Further, the “-logIC50” value in [6] is 7.99. Further, the Ki in assay [6] (FIG. 1, rat brain cortex membranes, read-out: Apparent Ki at 3H-prazosin binding sites) came to 3.44 nM; in [14] (FIG. 1, rat brain cortex membranes, read-out: Apparent Ki at 3H-DHA binding sites) it was 5910 nM; in assay [15] (FIG. 1, rat brain cortex membranes, read-out: Apparent Ki at 3H-yohimbine binding sites), 884 nM. For the same compound, the “affinity to alpha1-adrenoceptors (in words)” value in assay [6] (discussion of Table 1) is “excellent affinity; also recorded: apparent nanomolar potency”. Also, the “persistence of effect on norepinephrine contraction of aorta rings” value in [13] is “could not be cancelled by 21 hours of washing at 4 °C”. The “displacement of 3H-DHA (in words)” value in assay [14] (brain membranes) was “much weaker competitor”. For the same compound, in assay [15] (brain membranes), the “affinity at 3H-yohimbine binding sites relative to 3H-prazosin binding sites” value is listed as “over a hundred times lower”. The “displacement of 3H-yohimbine (in words)” value in [15] (brain membranes) is recorded as “much weaker competitor”.

Broadly, the Kd is the equilibrium constant for the complex coming apart.
